The text below walks through data of patent US11028079B2 (ConverGene LLC, priority 2015, dated 2021).

Where only a bound is given, the exact number is not on record here.

This assay has as its target T1, BRD4 bromodomains (Homo sapiens, UniProt O60885).
T1 construct: fused on or other part: T7 phage capsid protein (phage-display fusion; the phage DNA is read out by qPCR)
As to the kind of experiment: BROMOscan bromodomain competition binding assay (DiscoveRx). The conditions noted are these: Kd from 11 compound concentrations ranging from 0 to 10 μM, read-out: BROMOscan Relative Activity. The procedure, abridged:
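Compounds in 0.1% DMSO/0.9% MEG competed with a solid-phase acetylated peptide for T7 phage-fused BRD4 bromodomains, with the retained bromodomain measured by qPCR.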
As for `Cc1noc(C)c1-c1ccc2nc(C(=O)NCc3ncc[nH]3)nc(NCc3cccc(Cl)c3)c2c1` [Example 177, N-((1H-imidazol-2-yl)methyl)-4-((3-chlorobenzyl)amino)-6-(3,5-dimethylisoxazol-4-yl)quinazoline-2-carboxamide], the Kd is < 500 nM.
For the compound `Cc1noc(C)c1-c1ccc2nc(-c3ccc(CO)nc3)nc(NCc3cccc(Cl)c3)c2c1` [Example 63, (5-(4-((3-chlorobenzyl)amino)-6-(3,5-dimethylisoxazol-4-yl)quinazolin-2-yl)pyridin-2-yl)methanol], the Kd was < 500 nM.
For `Cc1noc(C)c1-c1ccc2nc(-c3cnn(CC(C)(C)O)c3)nc(NCc3cccc(Cl)c3)c2c1` [Example 56, 1-(4-(4-((3-chlorobenzyl)amino)-6-(3,5-dimethylisoxazol-4-yl)quinazolin-2-yl)-1H-pyrazol-1-yl)-2-methylpropan-2-ol] the value was < 500 nM; for `Cc1noc(C)c1-c1ccc2nc(N3CCN(CCN(C)C)CC3)nc(NCc3cccc(Br)c3)c2c1` [Example 75, N-(3-bromobenzyl)-2-(4-(2-(dimethylamino)ethyl)piperazin-1-yl)-6-(3,5-dimethylisoxazol-4-yl)quinazolin-4-amine], < 500 nM; for `COc1cccc(CNc2nc(N3CCN(CCN(C)C)CC3)nc3ccc(-c4c(C)noc4C)cc23)c1` [Example 73, 2-(4-(2-(dimethylamino)ethyl)piperazin-1-yl)-6-(3,5-dimethylisoxazol-4-yl)-N-(3-methoxybenzyl)quinazolin-4-amine], < 500 nM.
With `Cc1noc(C)c1-c1ccc2nc(Cl)nc(NCc3cccc(Cl)c3)c2c1` [Example 1, 2-chloro-N-(3-chlorobenzyl)-6-(3,5-dimethylisoxazol-4-yl)quinazolin-4-amine], the Kd fell in the range of 500 to 5000 nM.
In the case of `Cc1noc(C)c1-c1ccc2nc(N3CCc4c(ncn4C)C3)nc(N3CCOC[C@@H]3c3ccccc3)c2c1` [Example 328, (S)-4-(6-(3,5-dimethylisoxazol-4-yl)-2-(1-methyl-1,4,6,7-tetrahydro-5H-imidazo[4,5-c]pyridin-5-yl)quinazolin-4-yl)-3-phenylmorpholine] it was < 500 nM; in that of `CNC(=O)CN1CCN(c2nc(NCc3cccc(Cl)c3)c3cc(-c4ccc(=O)n(C)c4)ccc3n2)CC1` [Example 109, 2-(4-(4-((3-chlorobenzyl)amino)-6-(1-methyl-6-oxo-1,6-dihydropyridin-3-yl)quinazolin-2-yl)piperazin-1-yl)-N-methylacetamide], < 500 nM; in that of `CC(=O)N1CCC(NC(=O)c2nc(NCc3cccc(Cl)c3)c3cc(-c4c(C)noc4C)ccc3n2)CC1` [Example 199, N-(1-acetylpiperidin-4-yl)-4-((3-chlorobenzyl)amino)-6-(3,5-dimethylisoxazol-4-yl)quinazoline-2-carboxamide], < 500 nM.
Regarding `Cc1cc(-c2ccc3nc(N4CCN(CCN(C)C)CC4)nc(NCc4cccc(Cl)c4)c3c2)cnc1O` [Example 91, 5-(4-((3-chlorobenzyl)amino)-2-(4-(2-(dimethylamino)ethyl)piperazin-1-yl)quinazolin-6-yl)-3-methylpyridin-2-ol], the Kd is < 500 nM.
In the case of `CNc1nc(NCc2cccc(Cl)c2)c2cc(-c3c(C)noc3C)ccc2n1` [Example 5, N4-(3-chlorobenzyl)-6-(3,5-dimethylisoxazol-4-yl)-N2-methylquinazoline-2,4-diamine] it was 500 to 5000 nM; in that of `Cc1noc(C)c1-c1ccc2nc(-c3cnn(CCO)c3)nc(N3CCC(C(=O)O)CC3)c2c1` [Example 255, 1-(6-(3,5-dimethylisoxazol-4-yl)-2-(1-(2-hydroxyethyl)-1H-pyrazol-4-yl)quinazolin-4-yl)piperidine-4-carboxylic acid], 500 to 5000 nM; in that of `Cc1noc(C)c1-c1ccc2nc(N3CCN(CCN(C)C)CC3)nc(NCc3ccco3)c2c1` [Example 79, 2-(4-(2-(dimethylamino)ethyl)piperazin-1-yl)-6-(3,5-dimethylisoxazol-4-yl)-N-(furan-2-ylmethyl)quinazolin-4-amine], 500 to 5000 nM.
In the case of `Cc1noc(C)c1-c1ccc2nc(N3CCN(CC(N)=O)CC3)nc(NCc3cccc(Cl)c3)c2c1` [Example 54, 2-(4-(4-((3-chlorobenzyl)amino)-6-(3,5-dimethylisoxazol-4-yl)quinazolin-2-yl)piperazin-1-yl)acetamide] it was < 500 nM; in that of `Cc1noc(C)c1-c1ccc2nc(-c3cnn(CCO)c3)nc(N3CCOC[C@@H]3c3ccccc3)c2c1` [Example 306, (S)-2-(4-(6-(3,5-dimethylisoxazol-4-yl)-4-(3-phenylmorpholino)quinazolin-2-yl)-1H-pyrazol-1-yl)ethan-1-ol], < 500 nM.
For `Cc1noc(C)c1-c1ccc2nc(N3CCN(CCN(C)C)CC3)nc(NCc3ccccc3F)c2c1` [Example 76, 2-(4-(2-(dimethylamino)ethyl)piperazin-1-yl)-6-(3,5-dimethylisoxazol-4-yl)-N-(2-fluorobenzyl)quinazolin-4-amine] the value was < 500 nM; for `Cc1noc(C)c1-c1ccc2nc(C(=O)NC3CCS(=O)(=O)CC3)nc(NCc3cccc(Cl)c3)c2c1` [Example 204, 4-((3-chlorobenzyl)amino)-6-(3,5-dimethylisoxazol-4-yl)-N-(1,1-dioxidotetrahydro-2H-thiopyran-4-yl)quinazoline-2-carboxamide], < 500 nM.
For the compound `Cn1cc(-c2ccc3ncnc(Nc4ccc(Cl)cc4)c3c2)ccc1=O` [Example 159, 5-(4-((4-chlorophenyl)amino)quinazolin-6-yl)-1-methylpyridin-2(1H)-one], the Kd was > 5000 nM.
In the case of `Cc1noc(C)c1-c1ccc2nc(-c3cnn(CC(=O)O)c3)nc(NCc3cccc(Cl)c3)c2c1` [Example 166, 2-(4-(4-((3-chlorobenzyl)amino)-6-(3,5-dimethylisoxazol-4-yl)quinazolin-2-yl)-1H-pyrazol-1-yl)acetic acid] it was < 500 nM.
On to `Cc1noc(C)c1-c1ccc2nc(N3CCN(CCN(C)C)CC3)nc(NC(C)c3cccc(Cl)c3)c2c1` (centres unmarked) [Example 90, N-(1-(3-chlorophenyl)ethyl)-2-(4-(2-(dimethylamino)ethyl)piperazin-1-yl)-6-(3,5-dimethylisoxazol-4-yl)quinazolin-4-amine], for which the Kd is < 500 nM.
In the case of `CN(C)CCN1CCN(c2nc(NCc3cccc(Cl)c3)c3cc(-c4ccc(O)nc4)ccc3n2)CC1` [Example 67, 5-(4-((3-chlorobenzyl)amino)-2-(4-(2-(dimethylamino)ethyl)piperazin-1-yl)quinazolin-6-yl)pyridin-2-ol] it was 500 to 5000 nM; in that of `Cc1noc(C)c1-c1ccc2nc(N3CCN(C(=O)N(C)C)CC3)nc(NCc3cccc(Cl)c3)c2c1` [Example 244, 4-(4-((3-chlorobenzyl)amino)-6-(3,5-dimethylisoxazol-4-yl)quinazolin-2-yl)-N,N-dimethylpiperazine-1-carboxamide], < 500 nM.
In the case of `Cc1noc(C)c1-c1ccc2nc(C(=O)NC3CCN(C)CC3)nc(NCc3cccc(Cl)c3)c2c1` [Example 172, 4-((3-chlorobenzyl)amino)-6-(3,5-dimethylisoxazol-4-yl)-N-(1-methylpiperidin-4-yl)quinazoline-2-carboxamide] it was < 500 nM; in that of `CNC(=O)C1CCN(c2ncnc3ccc(-c4c(C)noc4C)cc23)CC1` [Example 270, 1-(6-(3,5-dimethylisoxazol-4-yl)quinazolin-4-yl)-N-methylpiperidine-4-carboxamide], < 500 nM.
For `Cc1noc(C)c1-c1ccc2nc(N3CCN(CCN(C)C)CC3)nc(N3CCC(C(=O)O)CC3)c2c1` [Example 254, 1-(2-(4-(2-(dimethylamino)ethyl)piperazin-1-yl)-6-(3,5-dimethylisoxazol-4-yl)quinazolin-4-yl)piperidine-4-carboxylic acid] the value was 500 to 5000 nM.
`Cc1noc(C)c1-c1ccc2nc(C(=O)N3CCN(CCN(C)C)CC3)nc(NCc3cccc(Cl)c3)c2c1` [Example 165, (4-((3-chlorobenzyl)amino)-6-(3,5-dimethylisoxazol-4-yl)quinazolin-2-yl)(4-(2-(dimethylamino)ethyl)piperazin-1-yl)methanone]: the Kd is 500 to 5000 nM.
For the compound `Cc1noc(C)c1-c1ccc2nc(N3CCC4(CCC(=O)N4)CC3)nc(N3CCOC[C@@H]3c3ccccc3)c2c1` [Example 314, (S)-8-(6-(3,5-dimethylisoxazol-4-yl)-4-(3-phenylmorpholino)quinazolin-2-yl)-1,8-diazaspiro[4.5]decan-2-one], the Kd was < 500 nM.
On to `Cc1noc(C)c1-c1ccc2nc(N3CCN(CC(N)=O)CC3)nc(NCc3cncc(Cl)c3)c2c1` [Example 117, 2-(4-(4-(((5-chloropyridin-3-yl)methyl)amino)-6-(3,5-dimethylisoxazol-4-yl)quinazolin-2-yl)piperazin-1-yl)acetamide], for which the Kd is < 500 nM.
Regarding `Cc1csc(CNc2nc(N3CCN(CCN(C)C)CC3)nc3ccc(-c4c(C)noc4C)cc23)c1` [Example 87, 2-(4-(2-(dimethylamino)ethyl)piperazin-1-yl)-6-(3,5-dimethylisoxazol-4-yl)-N-((4-methylthiophen-2-yl)methyl)quinazolin-4-amine], the Kd was < 500 nM.
For `Cc1noc(C)c1-c1ccc2nc(N3CCN(S(C)(=O)=O)CC3)nc(NC3(c4cccc(Cl)c4)CC3)c2c1` [Example 180, N-(1-(3-chlorophenyl)cyclopropyl)-6-(3,5-dimethylisoxazol-4-yl)-2-(4-(methylsulfonyl)piperazin-1-yl)quinazolin-4-amine] the value was < 500 nM; for `Cc1noc(C)c1-c1ccc2c(NCc3cccc(Cl)c3)nc(N3CCN(CCO)CC3)nc2c1` [Example 40, 2-(4-(4-((3-chlorobenzyl)amino)-7-(3,5-dimethylisoxazol-4-yl)quinazolin-2-yl)piperazin-1-yl)ethanol], 500 to 5000 nM.
For `Cc1noc(C)c1-c1ccc2nc(-c3c(C)noc3C)cc(NCc3cccc(Cl)c3)c2c1` [Example 14, N-(3-chlorobenzyl)-2,6-bis(3,5-dimethylisoxazol-4-yl)quinolin-4-amine], the Kd was 500 to 5000 nM.
